We go through 21 molecules from patent US9346812B2, “Substituted pyrrolopyrimidine compounds, compositions thereof, and methods of treatment therewith” (Signal Pharmaceutical LLC, priority 2013, dated 2016).

Where only a bound is given, the exact number is not on record here.

The subject of this experiment is CAL51 cell proliferation. The experiment in a line: Cell Titer Glo Proliferation Assay (CAL51). Format: cell-based, human. The settings on record: Homo sapiens, CAL-51; CAL51 cell proliferation, 72 h, Cell Titer Glo luminescence; read-out: Act. Level. The essentials:
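CAL51 triple-negative breast cancer cells in DMEM or RPMI with 10% FBS were treated after overnight culture with serially diluted compound at 0.2% final DMSO. After 72 h, viability was read as CellTiter-Glo luminescence.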

On to `CNC(=O)c1ccc(Nc2nc(OC)c3c(-c4ccncc4)c[nH]c3n2)c(OC)c1` [Example 190, 3-methoxy-4-(4-methoxy-5-(pyridin-4-yl)-7H-pyrrolo[2,3-d]pyrimidin-2-ylamino)-N-methylbenzamide], for which the IC50 is less than 100 nM.

With `CNC(=O)c1ccc(Nc2nc(OC3CCCC3)c3c(-c4cncc(OC)c4)c[nH]c3n2)c(Cl)c1` [Example 34, 3-chloro-4-(4-(cyclopentyloxy)-5-(5-methoxypyridin-3-yl)-7H-pyrrolo [2,3-d]pyrimidin-2-ylamino)-N-methylbenzamide], the IC50 was in the range of 100 to 400 nM.

On to `CC[C@H](C)Oc1nc(Nc2ccc(C(=O)NC)cc2OC)nc2[nH]cc(-c3ccc4nc(C)oc4c3)c12` [Example 204, (S)-4-(4-sec-butoxy-5-(2-methylbenzo[d]oxazol-6-yl)-7H-pyrrolo[2,3-d]pyrimidin-2-ylamino)-3-methoxy-N-methylbenzamide], for which the IC50 lay in the range of 100 to 400 nM.

Regarding `CNC(=O)c1ccc(Nc2nc(OC3CCCC3)c3c(-c4ccc(NS(C)(=O)=O)cc4)c[nH]c3n2)c(OC)c1` [Example 32, 4-(4-(cyclopentyloxy)-5-(4-(methylsulfonamido)phenyl)-7H-pyrrolo[2,3-d]pyrimidin-2-ylamino)-3-methoxy-N-methylbenzamide], the IC50 is less than 100 nM.

`COc1cc(C(=O)NC(C)(C)CO)ccc1Nc1nc(OC2CCCC2)c2c(-c3ccc4nc(C)oc4c3)c[nH]c2n1` [Example 234, 4-(4-(cyclopentyloxy)-5-(2-methylbenzo[d]oxazol-6-yl)-7H-pyrrolo[2,3-d]pyrimidin-2-ylamino)-N-(1-hydroxy-2-methylpropan-2-yl)-3-methoxybenzamide]: the IC50 was 100 to 400 nM.

Turning to `COc1cc(C(=O)NC2COC2)ccc1Nc1nc(OC2CCCC2)c2c(-c3ccc4nc(C)oc4c3)c[nH]c2n1` [Example 255, 4-(4-(cyclopentyloxy)-5-(2-methylbenzo[d]oxazol-6-yl)-7H-pyrrolo[2,3-d]pyrimidin-2-ylamino)-3-methoxy-N-(oxetan-3-yl)benzamide], the IC50 lay in the range of 100 to 400 nM.

In the case of `CNC(=O)c1ccc(Nc2nc(NC3CCOCC3)c3c(-c4cnn(C)c4)c[nH]c3n2)c(OC)c1` [Example 210, 3-methoxy-N-methyl-4-(5-(1-methyl-1H-pyrazol-4-yl)-4-(tetrahydro-2H-pyran-4-ylamino)-7H-pyrrolo[2,3-d]pyrimidin-2-ylamino)benzamide], the IC50 is less than 100 nM.

As for `COc1cc(C(=O)NCCO)ccc1Nc1nc(OC2CC2)c2c(-c3ccc4nc(C)oc4c3)c[nH]c2n1` [Example 216, 4-(4-cyclopropoxy-5-(2-methylbenzo[d]oxazol-6-yl)-7H-pyrrolo[2,3-d]pyrimidin-2-ylamino)-N-(2-hydroxyethyl)-3-methoxybenzamide], the IC50 is less than 100 nM.

Consider `CNC(=O)c1ccc(Nc2nc(O[C@H]3CCOC3)c3c(-c4cnn(C)c4)c[nH]c3n2)c(C)c1` [Example 165, (S)-N,3-dimethyl-4-(5-(1-methyl-1H-pyrazol-4-yl)-4-(tetrahydrofuran-3-yloxy)-7H-pyrrolo[2,3-d]pyrimidin-2-ylamino)benzamide], for which the IC50 was less than 100 nM.

Turning to `COc1nc(Nc2ccc(C(=O)N(C)C)cc2Cl)nc2[nH]cc(-c3ccc4[nH]c(C)nc4c3)c12` [Example 83, 3-chloro-4-(4-methoxy-5-(2-methyl-1H-benzo[d]imidazol-5-yl)-7H-pyrrolo[2,3-d]pyrimidin-2-ylamino)-N,N-dimethylbenzamide], the IC50 was less than 100 nM.

With `COc1cc(C(=O)NC2(C)COC2)ccc1Nc1nc(OC2CCCC2)c2c(-c3ccc4nc(C)oc4c3)c[nH]c2n1` [Example 301, 4-(4-(cyclopentyloxy)-5-(2-methylbenzo[d]oxazol-6-yl)-7H-pyrrolo[2,3-d]pyrimidin-2-ylamino)-3-methoxy-N-(3-methyloxetan-3-yl)benzamide], the IC50 is 100 to 400 nM.

On to `CNC(=O)c1ccc(Nc2nc(O[C@H]3CC[C@@H](O)CC3)c3c(-c4ccc(O)cc4)c[nH]c3n2)c(OC)c1` [Example 46, 4-(4-((1s,4s)-4-hydroxycyclo-hexyloxy)-5-(4-hydroxyphenyl)-7H-pyrrolo[2,3-d]pyrimidin-2-ylamino)-3-methoxy-N-methylbenzamide], for which the IC50 is less than 100 nM.

Consider `CNC(=O)c1ccc(Nc2nc(OC3CCCC3)c3c(-c4cccc(S(C)(=O)=O)c4)c[nH]c3n2)c(OC)c1` [Example 63, 4-(4-(cyclopentyloxy)-5-(3-(methyl-sulfonyl)phenyl)-7H-pyrrolo[2,3-d]pyrimidin-2-ylamino)-3-methoxy-N-methylbenzamide], for which the IC50 is less than 100 nM.

Take `CNC(=O)c1cc(C)c(Nc2nc(OC3CCCC3)c3c(-c4ccc5nc(C)oc5c4)c[nH]c3n2)c(OC)c1` [Example 298, 4-(4-(cyclopentyloxy)-5-(2-methylbenzo[d]oxazol-6-yl)-7H-pyrrolo[2,3-d]pyrimidin-2-ylamino)-3-methoxy-N,5-dimethylbenzamide]: the IC50 lay in the range of 1000 to 10000 nM.

`CNC(=O)c1ccc(Nc2nc(O[C@H]3CCOC3)c3c(-c4ccc5nc(C)oc5c4)c[nH]c3n2)c(C(C)C)c1` [Example 209, (S)-3-isopropyl-N-methyl-4-(5-(2-methylbenzo[d]oxazol-6-yl)-4-(tetrahydrofuran-3-yloxy)-7H-pyrrolo[2,3-d]pyrimidin-2-ylamino)benzamide]: the IC50 is 1000 to 10000 nM.

As for `COc1cc(C(=O)N(C)CC#N)ccc1Nc1nc(OC2CCCC2)c2c(-c3ccc4nc(C)oc4c3)c[nH]c2n1` [Example 263, N-(cyanomethyl)-4-(4-(cyclo-pentyloxy)-5-(2-methylbenzo[d]oxazol-6-yl)-7H-pyrrolo[2,3-d]pyrimidin-2-ylamino)-3-methoxy-N-methylbenzamide], the IC50 was less than 100 nM.

`COc1cc(C(=O)N2C[C@@H]2C)ccc1Nc1nc(OC2CCCC2)c2c(-c3ccc4nc(C)oc4c3)c[nH]c2n1` [Example 313, (S)-(4-(4-(cyclopentyloxy)-5-(2-methylbenzo[d]oxazol-6-yl)-7H-pyrrolo[2,3-d]pyrimidin-2-ylamino)-3-methoxyphenyl)(2-methylaziridin-1-yl)methanone]: the IC50 fell in the range of 400 to 1000 nM.

Take `CCOc1ccc(-c2c[nH]c3nc(Nc4ccc(C(=O)NC)cc4OC)nc(OC(C)C)c23)cn1` [Example 196, 4-(5-(6-ethoxypyridin-3-yl)-4-isopropoxy-7H-pyrrolo[2,3-d]pyrimidin-2-ylamino)-3-methoxy-N-methylbenzamide]: the IC50 is 100 to 400 nM.

Turning to `Cc1nc2ccc(-c3c[nH]c4nc(Nc5ccc(C(=O)N(C)C)cc5C)nc(O[C@@H]5CCOC5)c34)cc2o1` [Example 99, (R)-N,N,3-trimethyl-4-(5-(2-methylbenzo[d]oxazol-6-yl)-4-(tetrahydrofuran-3-yloxy)-7H-pyrrolo[2,3-d]pyrimidin-2-ylamino)benzamide], the IC50 is less than 100 nM.

Consider `CNC(=O)c1ccc(Nc2nc(OC3CCOCC3)c3c(-c4ccn(C)n4)c[nH]c3n2)c(OC)c1` [Example 163, 3-methoxy-N-methyl-4-(5-(1-methyl-1H-pyrazol-3-yl)-4-(tetrahydro-2H-pyran-4-yloxy)-7H-pyrrolo[2,3-d]pyrimidin-2-ylamino)benzamide], for which the IC50 is less than 100 nM.

As to `CNC(=O)c1ccc(-c2c[nH]c3nc(Nc4ccc(C(=O)NC)cc4OC)nc(OC(C)C)c23)cc1` [Example 188, 4-(4-isopropoxy-5-(4-(methylcarbamoyl)phenyl)-7H-pyrrolo[2,3-d]pyrimidin-2-ylamino)-3-methoxy-N-methylbenzamide], the IC50 was less than 100 nM.
